Source: patent US12708602B2, “Fermentation extracts, cosmetic composition and manufacturing method of fermentation extracts” (bioMOA Medical, Inc., priority 2023, dated 2026)

Conditions: dissolved in purified water (FIG. 3)

## N[C@@H](CCC(=O)N[C@@H](CS)C(=O)NCC(=O)O)C(=O)O [glutathione powder, glutathione]
  precipitation: precipitation occurred from the first day
